Data on one cell line can be found in the supplement of paper PMC10307832.

Experiment in all cases: relative viability (nuclei count vs DMSO), 5 days (fraction); higher = more cells survive
Compound in one experiment: C1CC(C2=C(C1)C3=C(N2)C=CC(=C3)Cl)C(=O)N [Selisistat]
The method, boiled down:
(§1)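 Lung cancer cell lines were seeded into 1536-well plates, kept overnight at 37 °C and pinned with five library-drug doses (not always all listed) spaced by √10. After 5 days, nuclei were Hoechst-stained, imaged at 4× and counted with MetaXpress. Viability is treated-well nuclei over vehicle-well nuclei, taken as a median across plates. Plates needed control CV below 25% and at least one doubling.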

Compound in a further experiment: c1ccc2c(CCNc3ccc(Nc4ccncc4)cc3)c[nH]c2c1 [Serdemetan]
The method, boiled down: as §1

Compound in the experiment “Selisistat + Palbociclib”: C1CC(C2=C(C1)C3=C(N2)C=CC(=C3)Cl)C(=O)N [Selisistat] + CC(=O)c1c(C)c2cnc(Nc3ccc(N4CCNCC4)cn3)nc2n(C2CCCC2)c1=O [Palbociclib] (partner 0.5 µM)
The method in brief:
(§2)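 Medians of duplicate plates are given as relative viability. That measure is the nuclei count in treated wells divided by the count in vehicle wells. Counts were taken on 4× images of lung cancer cell lines in 1536-well plates, 5 days after pin-tool dosing the day after seeding with one drug alone or a fixed anchor-drug dose plus five library-drug doses (not always all listed) in √10 steps.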

Compound in the experiment “Selisistat + Tozasertib”: C1CC(C2=C(C1)C3=C(N2)C=CC(=C3)Cl)C(=O)N [Selisistat] + Cc1cc(Nc2cc(N3CCN(C)CC3)nc(Sc3ccc(NC(=O)C4CC4)cc3)n2)n[nH]1 [Tozasertib] (partner 0.1 µM)
The method, boiled down:
as §2

As for UMC-11, the relative viability came to 1 with Selisistat (0.4 µM); 0.962 in the experiment with Selisistat (1.265 µM); 0.883 in the experiment with Selisistat (4 µM); 0.978 in the experiment with Selisistat (12.65 µM); 1.06 with Selisistat (40 µM); 0.935 with Serdemetan (0.04 µM). Also, the relative viability with Serdemetan (0.1265 µM) is 1.01; with Serdemetan (0.4 µM), 0.902; with Serdemetan (1.265 µM), 0.661; with Serdemetan (4 µM), 0.924; with Selisistat + Palbociclib (first compound 0.4 µM), 0.348; with Selisistat + Palbociclib (first compound 1.265 µM), 0.34. Further, the relative viability was determined as 0.299 with Selisistat + Palbociclib (first compound 4 µM); 0.319 in the experiment with Selisistat + Palbociclib (first compound 12.65 µM); 0.349 in the experiment with Selisistat + Palbociclib (first compound 40 µM); 0.212 with Selisistat + Tozasertib (first compound 0.4 µM); 0.21 with Selisistat + Tozasertib (first compound 1.265 µM); 0.209 in the experiment with Selisistat + Tozasertib (first compound 4 µM). Moreover, the relative viability with Selisistat + Tozasertib (first compound 12.65 µM) came to 0.205; with Selisistat + Tozasertib (first compound 40 µM) it was 0.212.
